Measurements as given in patent publication US9586961B2, “Homopiperazine derivatives as protein tyrosine kinase inhibitors and pharmaceutical use thereof” (LEO PHARMA A/S, priority 2010, dated 2017).

Columns and labels:
Assay type in all cases: biochemical
[1] = target: T1, JAK3 (Homo sapiens, UniProt P52333); assay: JAK3 kinase assay (HTRF, inhibition of phosphorylation of a synthetic peptide); settings: catalytic domain, His-tag; 2 μM ATP (Km); read-out: JAK3 kinase inhibitory activity (EC50)
T1 construct: All four purified enzymes contain only the catalytic domain; His (N); purchased Carna Biosciences, Inc; host or cells: baculovirus expression system
Procedure: (§1) JAK1, JAK2, JAK3 and TYK2 Kinase Assays:
(§2) Human baculovirus-expressed JAK1, 2, 3 and TYK2 were purchased from Carna Biosciences, Inc. All four purified enzymes contain only the catalytic domain. JAK1 (aa 850-1154) and TYK2 (aa 871-1187) are expressed with an N-terminally fused GST-tag, and JAK2 and JAK3 with an N-terminally fused His-tag. Inhibition of phosphorylation of a synthetic peptide was measured in an HTRF-based assay using the TK substrate-Biotin from the CisbioHTRFKinEASE TK kit. First, 2 μl of TK solution (TK substrate-biotin in kinase buffer [1× enzymatic buffer from HTRFKinEASE TK kit, 1 mM DTT]) is added to a plate containing 1 μl prediluted compound (final assay concentration DMSO: 0.75%). Then, 5 μl kinase-ATP mix (prepared in kinase buffer) is added to the wells and the plates are incubated at RT for 20-30 min. For all four kinases a concentration of ATP that corresponded to the Km for ATP was used. The final concentrations of buffers, substrate, kinase and ATP were: JAK1: 50 mMHepes buffer pH 7.0, 0.01% BSA, 10 mM MgCl2, 1 mM DTT, 7 μM ATP, 50 nMSEB, 1 μM TK Substrate-Biotin and 5 ng JAK1; JAK2: 50 mM Hepes buffer pH 7.0, 0.01% BSA, 5 mM MgCl2, 1 mM DTT, 4 μM ATP, 1 μM TK Substrate-Biotin and 0.1 ng JAK2; JAK3: 50 mMHepes buffer pH 7.0, 0.01% BSA, 5 mM MgCl2, 1 mM DTT, 2 μM ATP, 1 μM TK Substrate-Biotin and 0.3 ng JAK3; TYK2: 50 mMHepes buffer pH 7.0, 0.01% BSA, 5 mM MgCl2, 1 mM DTT, 13 μM ATP, 50 nMSEB, 1 μM TK Substrate-Biotin and 0.8 ng TYK2. Thereafter, the kinase reaction is stopped by adding 4 μl detection mix (final concentrations: 50 mM Hepes buffer pH 7.0, 0.01% BSA, 0.8 M KF, 20 mM EDTA, 42 nM Streptavidin-XL665 and 1:400 STKAbCryptate) and the plates are incubated overnight in the dark. The HTRF signal is read using an Envision plate reader.

[2] = target: T2, JAK2 (Homo sapiens, UniProt O60674); assay: JAK2 kinase assay (HTRF, inhibition of phosphorylation of a synthetic peptide); settings: catalytic domain, His-tag; 4 μM ATP (Km); read-out: JAK2 kinase inhibitory activity (EC50)
T2 construct: All four purified enzymes contain only the catalytic domain; His (N); purchased Carna Biosciences, Inc; host or cells: baculovirus expression system
Procedure: as §1, §2

[3] = target: T3, JAK1 (Homo sapiens, UniProt P23458); assay: JAK1 kinase assay (HTRF, inhibition of phosphorylation of a synthetic peptide); settings: catalytic domain aa 850-1154, GST-tag; 7 μM ATP (Km); read-out: JAK1 kinase inhibitory activity (EC50)
T3 construct: JAK1 (aa 850-1154) and TYK2 (aa 871-1187) are expressed with an N-terminally fused GST-tag; GST (N); purchased Carna Biosciences, Inc; host or cells: baculovirus expression system
Procedure: as §1, §2

T3 sequence (P23458 850-1154): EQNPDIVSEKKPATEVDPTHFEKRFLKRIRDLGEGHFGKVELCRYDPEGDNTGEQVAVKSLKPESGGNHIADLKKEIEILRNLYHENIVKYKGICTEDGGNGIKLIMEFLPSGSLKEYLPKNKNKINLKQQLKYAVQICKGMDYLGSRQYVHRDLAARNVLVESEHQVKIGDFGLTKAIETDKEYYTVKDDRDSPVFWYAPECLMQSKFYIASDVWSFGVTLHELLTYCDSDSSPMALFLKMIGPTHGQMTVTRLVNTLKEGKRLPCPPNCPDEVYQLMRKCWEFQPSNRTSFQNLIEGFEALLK
T1 sequence (P52333 822-1111 limits assumed): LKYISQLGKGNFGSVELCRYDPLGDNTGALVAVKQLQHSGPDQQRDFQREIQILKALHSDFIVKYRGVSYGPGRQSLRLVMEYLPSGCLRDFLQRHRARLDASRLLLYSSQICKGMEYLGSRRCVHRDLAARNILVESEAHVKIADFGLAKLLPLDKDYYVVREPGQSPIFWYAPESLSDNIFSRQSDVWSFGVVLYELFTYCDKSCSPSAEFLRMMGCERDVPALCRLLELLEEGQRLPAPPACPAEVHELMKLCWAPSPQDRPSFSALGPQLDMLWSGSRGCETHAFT
T2 sequence (O60674 849-1124 limits assumed): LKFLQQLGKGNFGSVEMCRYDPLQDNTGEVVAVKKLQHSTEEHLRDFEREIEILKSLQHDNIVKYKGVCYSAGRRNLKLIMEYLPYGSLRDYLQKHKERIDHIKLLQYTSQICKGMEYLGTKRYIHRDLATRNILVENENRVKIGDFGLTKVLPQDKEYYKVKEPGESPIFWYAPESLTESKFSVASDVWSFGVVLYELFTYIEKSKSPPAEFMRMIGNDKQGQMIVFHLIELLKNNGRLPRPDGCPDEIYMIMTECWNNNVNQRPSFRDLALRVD

SMILES | EC50 [1] [nM] | EC50 [2] [nM] | EC50 [3] [nM]
O=C(Cc1ccc(F)cc1)N1CCCN(c2ncnc3[nH]ccc23)CC12CC2 [Example 159, 2-(4-fluorophenyl)-1-[5-(7H-pyrrolo[2,3-d]pyrimidin-4-yl)-5,9-diazaspiro[2.6]nonan-9-yl]ethanone] | > 1000 | < 100 | 100 to 1000
O=C(c1cncnc1)N1CCN(c2ncnc3[nH]ccc23)CC2(CC2)C1 [Example 160, pyrimidin-5-yl-[5-(7H-pyrrolo[2,3-d]pyrimidin-4-yl)-5,8-diazaspiro[2.6]nonan-8-yl]methanone] | > 1000 | 100 to 1000 | > 1000
O=C(c1cncnc1)N1CCCN(c2ncnc3[nH]ccc23)CC12CC2 [Example 161, pyrimidin-5-yl-[5-(7H-pyrrolo[2,3-d]pyrimidin-4-yl)-5,9-diazaspiro[2.6]nonan-9-yl]methanone] | > 1000 | 100 to 1000 | 100 to 1000
N#Cc1ccccc1C(=O)N1CCCN(c2ncnc3[nH]ccc23)CC12CC2 [Example 162, 2-[5-(7H-pyrrolo[2,3-d]pyrimidin-4-yl)-5,9-diazaspiro[2.6]nonane-9-carbonyl]benzonitrile] | > 1000 | 100 to 1000 | > 1000
O=C(c1cccc(O)n1)N1CCN(c2ncnc3[nH]ccc23)CC2(CC2)C1 [Example 163, (6-hydroxy-2-pyridyl)-[5-(7H-pyrrolo[2,3-d]pyrimidin-4-yl)-5,8-diazaspiro[2.6]nonan-8-yl]methanone] | > 1000 | 100 to 1000 | 100 to 1000
O=C(c1cccc(O)n1)N1CCCN(c2ncnc3[nH]ccc23)CC12CC2 [Example 164, (6-hydroxy-2-pyridyl)-[5-(7H-pyrrolo[2,3-d]pyrimidin-4-yl)-5,9-diazaspiro[2.6]nonan-9-yl]methanone] | > 1000 | 100 to 1000 | 100 to 1000
O=C(c1ccncn1)N1CCN(c2ncnc3[nH]ccc23)CC2(CC2)C1 [Example 165, pyrimidin-4-yl-[5-(7H-pyrrolo[2,3-d]pyrimidin-4-yl)-5,8-diazaspiro[2.6]nonan-8-yl]methanone] | > 1000 | 100 to 1000 | > 1000
O=C(Cc1ccccn1)N1CCN(c2ncnc3[nH]ccc23)CC2(CC2)C1 [Example 167, 2-(2-pyridyl)-1-[5-(7H-pyrrolo[2,3-d]pyrimidin-4-yl)-5,8-diazaspiro[2.6]nonan-8-yl]ethanone] | > 1000 | 100 to 1000 | 100 to 1000
Cc1nccnc1C(=O)N1CCN(c2ncnc3[nH]ccc23)CC2(CC2)C1 [Example 168, (3-methylpyrazin-2-yl)-[5-(7H-pyrrolo[2,3-d]pyrimidin-4-yl)-5,8-diazaspiro[2.6]nonan-8-yl]methanone] | > 1000 | > 1000 | > 1000
Cc1cncc(C(=O)N2CCN(c3ncnc4[nH]ccc34)CC3(CC3)C2)n1 [Example 169, (6-methylpyrazin-2-yl)-[5-(7H-pyrrolo[2,3-d]pyrimidin-4-yl)-5,8-diazaspiro[2.6]nonan-8-yl]methanone] | > 1000 | 100 to 1000 | > 1000
Cc1noc(C)c1C(=O)N1CCN(c2ncnc3[nH]ccc23)CC2(CC2)C1 [Example 170, (3,5-dimethylisoxazol-4-yl)-[5-(7H-pyrrolo[2,3-d]pyrimidin-4-yl)-5,8-diazaspiro[2.6]nonan-8-yl]methanone] | > 1000 | > 1000 | > 1000
Cc1cc(C(=O)N2CCN(c3ncnc4[nH]ccc34)CC3(CC3)C2)ccn1 [Example 171, (2-methyl-4-pyridyl)-[5-(7H-pyrrolo[2,3-d]pyrimidin-4-yl)-5,8-diazaspiro[2.6]nonan-8-yl]methanone] | > 1000 | > 1000 | 100 to 1000
Cc1cc(C(=O)N2CCCN(c3ncnc4[nH]ccc34)CC23CC3)ccn1 [Example 172, (2-methyl-4-pyridyl)-[5-(7H-pyrrolo[2,3-d]pyrimidin-4-yl)-5,9-diazaspiro[2.6]nonan-9-yl]methanone] | > 1000 | 100 to 1000 | 100 to 1000
O=C(Cc1ccccc1Cl)N1CCCN(c2ncnc3[nH]ccc23)CC12CC2 [Example 174, 2-(2-chlorophenyl)-1-[5-(7H-pyrrolo[2,3-d]pyrimidin-4-yl)-5,9-diazaspiro[2.6]nonan-9-yl]ethanone] | > 1000 | 100 to 1000 | 100 to 1000
O=C(c1ccccc1Cl)N1CCCN(c2ncnc3[nH]ccc23)CC12CC2 [Example 178, (2-chlorophenyl)-[5-(7H-pyrrolo[2,3-d]pyrimidin-4-yl)-5,9-diazaspiro[2.6]nonan-9-yl]methanone] | > 1000 | 100 to 1000 | 100 to 1000
O=C(c1ccno1)N1CCCN(c2ncnc3[nH]ccc23)CC12CC2 [Example 181, isoxazol-5-yl-[5-(7H-pyrrolo[2,3-d]pyrimidin-4-yl)-5,9-diazaspiro[2.6]nonan-9-yl]methanone] | 100 to 1000 | < 100 | < 100
O=C(c1cc[nH]n1)N1CCN(c2ncnc3[nH]ccc23)CC2(CC2)C1 [Example 182, 1H-pyrazol-3-yl-[5-(7H-pyrrolo[2,3-d]pyrimidin-4-yl)-5,8-diazaspiro[2.6]nonan-8-yl]methanone] | 100 to 1000 | 100 to 1000 | 100 to 1000

Now from value to compound:

EC50 [1] [nM] | EC50 [2] [nM] | EC50 [3] [nM] | SMILES
100 to 1000 | 100 to 1000 | 100 to 1000 | O=C(c1cnco1)N1CCCN(c2ncnc3[nH]ccc23)CC12CC2 [Example 156, oxazol-5-yl-[5-(7H-pyrrolo[2,3-d]pyrimidin-4-yl)-5,9-diazaspiro[2.6]nonan-9-yl]methanone]
100 to 1000 | 100 to 1000 | 100 to 1000 | O=C(c1cn[nH]c1)N1CCN(c2ncnc3[nH]ccc23)CC2(CC2)C1 [Example 157, 1H-pyrazol-4-yl-[5-(7H-pyrrolo[2,3-d]pyrimidin-4-yl)-5,8-diazaspiro[2.6]nonan-8-yl]methanone]
100 to 1000 | < 100 | < 100 | O=C(c1ccncn1)N1CCCN(c2ncnc3[nH]ccc23)CC12CC2 [Example 166, pyrimidin-4-yl-[5-(7H-pyrrolo[2,3-d]pyrimidin-4-yl)-5,9-diazaspiro[2.6]nonan-9-yl]methanone]
100 to 1000 | < 100 | 100 to 1000 | O=C(Cc1ccccc1Cl)N1CCN(c2ncnc3[nH]ccc23)CC2(CC2)C1 [Example 173, 2-(2-chlorophenyl)-1-[5-(7H-pyrrolo[2,3-d]pyrimidin-4-yl)-5,8-diazaspiro[2.6]nonan-8-yl]ethanone]
100 to 1000 | 100 to 1000 | 100 to 1000 | Cc1cc(C(=O)N2CCN(c3ncnc4[nH]ccc34)CC3(CC3)C2)no1 [Example 175, (5-methylisoxazol-3-yl)-[5-(7H-pyrrolo[2,3-d]pyrimidin-4-yl)-5,8-diazaspiro[2.6]nonan-8-yl]methanone]
100 to 1000 | < 100 | 100 to 1000 | O=C(c1ccc(Cl)cc1)N1CCN(c2ncnc3[nH]ccc23)CC2(CC2)C1 [Example 176, (4-chlorophenyl)-[5-(7H-pyrrolo[2,3-d]pyrimidin-4-yl)-5,8-diazaspiro[2.6]nonan-8-yl]methanone]
100 to 1000 | 100 to 1000 | 100 to 1000 | O=C(c1ccno1)N1CCN(c2ncnc3[nH]ccc23)CC2(CC2)C1 [Example 177, isoxazol-5-yl-[5-(7H-pyrrolo[2,3-d]pyrimidin-4-yl)-5,8-diazaspiro[2.6]nonan-8-yl]methanone]
100 to 1000 | < 100 | 100 to 1000 | O=C(c1cccc(Cl)c1)N1CCCN(c2ncnc3[nH]ccc23)CC12CC2 [Example 179, (3-chlorophenyl)-[5-(7H-pyrrolo[2,3-d]pyrimidin-4-yl)-5,9-diazaspiro[2.6]nonan-9-yl]methanone]
100 to 1000 | < 100 | < 100 | O=C(c1ccc(Cl)cc1)N1CCCN(c2ncnc3[nH]ccc23)CC12CC2 [Example 180, (4-chlorophenyl)-[5-(7H-pyrrolo[2,3-d]pyrimidin-4-yl)-5,9-diazaspiro[2.6]nonan-9-yl]methanone]
